Data as given in patent publication US5602099A, “δ opioid receptor antagonists” (Aktiebolaget Astra, priority 1993, dated 1997).
Like-named read-outs stand apart in the source and are kept apart here. Peptide text beside a SMILES is read from it.

Experiments:
[1] = biological target: T1, δ opioid receptors (Mus musculus, UniProt P32300); assay: Mouse vas deferens (MVD) bioassay, antagonism of electrically evoked contraction inhibition by δ-selective agonists; format: tissue-based; settings: MVD assay, means of 3-8 determinations
T1 construct: Bioassays Using Isolated Organ Preparations; from tissue; host or cells: mouse vas deferens (isolated organ)
From the text: a) Biosassys based on inhibition of electrically evoked contractions of the mouse vas deferens (MVD) and of the guinea pig ileum (GPI). In the GPI assay the opioid effect is primarily mediated by μ opioid receptors, whereas in the MVD assay the inhibition of the contractions is mostly due to interaction with δ opioid receptors.
The GPI and MVD bioassays were carded out as reported in P. W. Schiller et al., Biochem. Biophys. Res. Commun 85, 1332-1338 (1978) and J. Di Maio et al., J. Med. Chem. 25, 1432-1438 (1982). A log dose-response curve was determind with [Leu^5 ]enkephalin as standard for each ileum and vas preparation, and IC50 values of the compounds being tested were normalized according to A. A Waterfield et al., Eur. J. Pharmacol. 58, 11-18 (1979). […] These determinations were made with the MVD assay, using three different δ-selective agonists ([Leu^5 ] enkephalin, DPDPE and [D-Ala^2 ]deltorphin I].

[2] = biological target: T2, δ opioid receptor (Rattus norvegicus, UniProt P33533); assay: δ opioid receptor binding assay, displacement of δ-selective radioligand from rat brain membranes
T2 construct: Male Sprague-Dawley rats (300-350 g) from the Canadian Breeding Laboratories were decapitated and after removal of the cerebellum the brains were homogenized; from tissue; host or cells: rat brain (without cerebellum) membranes, male Sprague-Dawley
From the text: In the case of κ-ligands guinea pig brain homogenates were used, since the relative proportion of κ-binding sites is higher in guinea pig brain than in rat brain. The experimental procedure being used in our laboratory represents a modified version of the binding assay described by Pasternak et al. (Mol. Pharmacol. 11, 340-351, (1975)). Male Sprague-Dawley rats (300-350 g) from the Canadian Breeding Laboratories were decapitated and after removal of the cerebellum the brains were homogenized in 30 volumes of ice-cold standard buffer (50 mM Tris-HCl, pH 7.7). After centrifugation at 30,000×g for 30 min at 4° C. the membranes were reconstituted in the original volume of standard buffer and incubated for 30 min at 37° C. (to realease bound endogenous ligands). […] The incubation was terminated by filtration through Batman GF/B filters under vacuum at 4° C. Following two washings with 5 ml portions of ice-cold standard buffer the filters were transferred to scintillation vials and treated with 1 ml Protosol (New England Nuclear) for 30 min prior to the addition of 0.5 ml acetic acid and 10 ml Aquasol (New England Nuclear). After shaking for 30 min the vials were counted at an efficiency of 40-45%. All experiments were performed in duplicates and repeated at least three times. […] Values of half-maximal inhibition (IC50) of specific binding were obtained graphically from semilogarithmic plots. From the measured IC50-values, binding inhibition constants (Ki) were then calculated based on Cheng and Prusoff's equation (Biochem, Pharmacol. 22, 3099-3102 (1973)). Ratios of the Ki -values in the μ-, δ- and κ-representative binding assays are a measure of the receptor selectivety of the compound under investigation (e.g. Ki^μ /Ki^δ indicates the selectivity for δ-receptors versus μ-receptors).

[3] = Ke (nM) against [D-Ala2]deltorphin I, δ agonist [D-Ala2]deltorphin I
[4] = Ke (nM) against [Leu5]Enkephalin, δ agonist [Leu5]enkephalin
[5] = δ agonist DPDPE, read-out: Ke (nM) against DPDPE
[6] = δ agonist [D-Ala2]deltorphin I, read-out: Ke (nM) against [D-Ala2]deltorphin I
[7] = δ agonist [Leu5]enkephalin, read-out: Ke (nM) against [Leu5]Enkephalin
[8] = Ke (nM) against DPDPE, δ agonist DPDPE

T1 sequence (P32300 whole entry): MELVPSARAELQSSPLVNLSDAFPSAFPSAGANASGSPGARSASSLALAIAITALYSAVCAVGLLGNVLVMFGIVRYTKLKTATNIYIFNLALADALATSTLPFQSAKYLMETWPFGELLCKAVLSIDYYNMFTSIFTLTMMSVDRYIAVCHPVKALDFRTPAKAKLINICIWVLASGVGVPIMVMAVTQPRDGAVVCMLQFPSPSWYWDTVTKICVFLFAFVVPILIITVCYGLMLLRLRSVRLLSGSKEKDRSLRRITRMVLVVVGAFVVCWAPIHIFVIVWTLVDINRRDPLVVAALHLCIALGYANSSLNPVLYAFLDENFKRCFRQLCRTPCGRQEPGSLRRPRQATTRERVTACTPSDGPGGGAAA
T2 sequence (P33533 whole entry): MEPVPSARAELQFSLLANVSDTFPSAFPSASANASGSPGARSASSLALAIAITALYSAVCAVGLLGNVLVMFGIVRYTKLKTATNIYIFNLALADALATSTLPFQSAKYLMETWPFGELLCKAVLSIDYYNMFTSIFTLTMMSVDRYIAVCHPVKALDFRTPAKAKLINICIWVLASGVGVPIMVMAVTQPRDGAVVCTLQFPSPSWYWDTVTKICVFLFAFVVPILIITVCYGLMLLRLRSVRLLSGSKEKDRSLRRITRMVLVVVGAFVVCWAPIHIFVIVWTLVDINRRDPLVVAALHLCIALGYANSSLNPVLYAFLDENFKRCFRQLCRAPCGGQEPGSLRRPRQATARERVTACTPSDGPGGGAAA

| Compound | Kb [1, 3] | Kb [1, 4] | Kb [1, 5] | Kb [1, 6] | Kb [1, 7] | Kb [1, 8] | Ki^μ /Ki^δ ([2]; δ-selectivity ratio) | δ-selectivity, times less than the δ antagonists of this application ([2]; comparison with the δ antagonists described in this patent application) |
| --- | --- | --- | --- | --- | --- | --- | --- | --- |
| Cc1cc(O)cc(C)c1C[C@H](N)C(=O)N1Cc2ccccc2C[C@H]1C(=O)N[C@@H](Cc1ccccc1)C(=O)N[C@@H](Cc1ccccc1)C(N)=O [HDmtTicPhePheNH2, H-Dmt-Tic-Phe-Phe-NH2] (HELM PEPTIDE1{[Cc1cc(O)cc(C)c1C[C@H](N)C(=O)[*:2]].[Tic].F.F.[am]}$$$$V2.0) | 0.26 nM | 0.221 nM | 0.209 nM |  |  |  |  |  |
| Cc1cc(O)cc(C)c1C[C@H](N)C(=O)N1Cc2ccccc2C[C@H]1C(=O)N[C@@H](Cc1ccccc1)C(=O)N[C@@H](Cc1ccccc1)C(=O)O [HDmtTicPhePheOH, H-Dmt-Tic-Phe-Phe-OH] (HELM PEPTIDE1{[Cc1cc(O)cc(C)c1C[C@H](N)C(=O)[*:2]].[Tic].F.F}$$$$V2.0) |  |  | 0.196 nM | 0.13 nM | 0.169 nM |  |  |  |
| N[C@@H](Cc1ccc(O)c(Br)c1)C(=O)N1Cc2ccccc2C[C@H]1C(=O)N[C@@H](Cc1ccccc1)C(=O)N[C@@H](Cc1ccccc1)C(=O)O [HTyr(3-Br)TicPhePheOH, H-Tyr(3-Br)-Tic-Phe-Phe-OH] (HELM PEPTIDE1{[N[C@@H](Cc1ccc(O)c(Br)c1)C(=O)[*:2]].[Tic].F.F}$$$$V2.0) | 23.9 nM | 18.2 nM |  |  |  | 31.3 nM |  |  |
| N[C@@H](Cc1ccc(O)c(Cl)c1)C(=O)N1Cc2ccccc2C[C@H]1C(=O)N[C@@H](Cc1ccccc1)C(=O)N[C@@H](Cc1ccccc1)C(=O)O [HTyr(3-Cl)TicPhePheOH, H-Tyr(3-Cl)-Tic-Phe-Phe-OH] (HELM PEPTIDE1{[N[C@@H](Cc1ccc(O)c(Cl)c1)C(=O)[*:2]].[Tic].F.F}$$$$V2.0) | 19.9 nM | 18 nM |  |  |  | 20.4 nM |  |  |
| N[C@@H](Cc1ccc(O)c(F)c1)C(=O)N1Cc2ccccc2C[C@H]1C(=O)N[C@@H](Cc1ccccc1)C(=O)N[C@@H](Cc1ccccc1)C(=O)O [HTyr(3-F)TicPhePheOH, H-Tyr(3-F)-Tic-Phe-Phe-OH] (HELM PEPTIDE1{[N[C@@H](Cc1ccc(O)c(F)c1)C(=O)[*:2]].[Tic].F.F}$$$$V2.0) | 8.73 nM | 5.88 nM |  |  |  | 13 nM |  |  |
| N[C@@H](Cc1ccc(O)cc1)C(=O)N1Cc2ccccc2C[C@H]1CN[C@@H](CCc1ccccc1)C(=O)N[C@@H](Cc1ccccc1)C(=O)O [HTyrTic.psi.[CH2NH]HfePheOH, H-Tyr-Tic-.PSI.[CH2 --NH]Hfe-Phe-OH] | 1.9 nM | 2.22 nM |  |  |  | 2.64 nM |  |  |
| N[C@@H](Cc1ccc(O)cc1)C(=O)N1Cc2ccccc2C[C@H]1C(=O)NC1(C(=O)N[C@@H](Cc2ccccc2)C(=O)O)CCc2ccccc2C1 (stereo partly drawn) [HTyrTicAtcPheOH, H-Tyr-Tic-Atc-Phe-OH] (HELM PEPTIDE1{Y.[Tic].[O=C(C1(N[*:1])CCc2ccccc2C1)[*:2]].F}$$$$V2.0) | 0.927 nM | 1.63 nM |  |  |  | 1.85 nM |  |  |
| NC(=O)[C@H](Cc1ccccc1)NC(=O)[C@@H]1Cc2ccccc2CN1C(=O)[C@@H](N)Cc1ccc(O)cc1 [HTyrTicPheNH2, H-Tyr-Tic-Phe-NH2] (HELM PEPTIDE1{Y.[Tic].F.[am]}$$$$V2.0) | 58.9 nM | 43.9 nM |  |  |  | 96.8 nM | 52.0 |  |
| N[C@@H](Cc1ccc(O)cc1)C(=O)N1Cc2ccccc2C[C@H]1C(=O)N[C@@H](Cc1ccccc1)C(=O)N[C@@H](Cc1ccc([N+](=O)[O-])cc1)C(=O)O [HTyrTicPhePhe(pNO2)OH, H-Tyr-Tic-Phe-Phe(pNO2)-OH] (HELM PEPTIDE1{Y.[Tic].F.[O=C(O)[C@H](Cc1ccc([N+](=O)[O-])cc1)N[*:1]]}$$$$V2.0) | 2.79 nM | 3.62 nM |  |  |  | 3.3 nM |  |  |
| CCCC[C@H](NC(=O)[C@H](CC(C)C)NC(=O)[C@H](Cc1ccccc1)NC(=O)[C@H](Cc1ccccc1)NC(=O)[C@@H]1Cc2ccccc2CN1C(=O)[C@@H](N)Cc1ccc(O)cc1)C(=O)N[C@@H](CC(=O)O)C(N)=O [HTyrTicPhePheLeuNleAspNH2, H-Tyr-Tic-Phe-Phe-Leu-Nle-Asp-NH2] (HELM PEPTIDE1{Y.[Tic].F.F.L.[Nle].D.[am]}$$$$V2.0) | 10.8 nM | 21.4 nM |  |  |  | 10.4 nM |  |  |
| N[C@@H](Cc1ccc(O)cc1)C(=O)N1Cc2ccccc2C[C@H]1C(=O)N[C@@H](Cc1ccccc1)C(=O)N[C@@H](Cc1ccccc1)C(=O)O [HTyrTicPhePheOH, H-Tyr-Tic-Phe-Phe-OH] (HELM PEPTIDE1{Y.[Tic].F.F}$$$$V2.0) |  |  | 4.8 nM | 2.96 nM | 5.86 nM |  |  |  |
| N[C@@H](Cc1ccc(O)cc1)C(=O)N1Cc2ccccc2C[C@H]1C(=O)N[C@@H](Cc1c[nH]c2ccccc12)C(=O)O [HTyrTicTrpOH] (HELM PEPTIDE1{Y.[Tic].W}$$$$V2.0) | 5.36 nM | 10.6 nM |  |  |  | 6.23 nM |  |  |
| N[C@@H](Cc1ccc(O)cc1)C(=O)N1Cc2ccccc2C[C@H]1C(=O)N[C@@H](Cc1c[nH]c2ccccc12)C(=O)N[C@@H](Cc1ccc([N+](=O)[O-])cc1)C(=O)O [HTyrTicTrpPhe(pNO2)OH, H-Tyr-Tic-Trp-Phe(pNO2)-OH] (HELM PEPTIDE1{Y.[Tic].W.[O=C(O)[C@H](Cc1ccc([N+](=O)[O-])cc1)N[*:1]]}$$$$V2.0) | 2.27 nM | 1.83 nM |  |  |  | 4.4 nM |  |  |
| NC(=O)[C@H](CO)NC(=O)[C@@H]1CCCN1C(=O)[C@H](Cc1ccc(O)cc1)NC(=O)[C@H](Cc1ccc([N+](=O)[O-])cc1)NC(=O)[C@H](Cc1c[nH]c2ccccc12)NC(=O)[C@@H]1Cc2ccccc2CN1C(=O)[C@@H](N)Cc1ccc(O)cc1 [HTyrTicTrpPhe(pNO2)TyrProSerNH2, H-Tyr-Tic-Trp-Phe (pNO2) -Tyr-Pro-Ser-NH2] (HELM PEPTIDE1{Y.[Tic].W.[O=C([C@H](Cc1ccc([N+](=O)[O-])cc1)N[*:1])[*:2]].Y.P.S.[am]}$$$$V2.0) | 3.91 nM | 3.68 nM |  |  |  | 2.48 nM |  |  |
| NC(=O)[C@H](CO)NC(=O)[C@@H]1CCCN1C(=O)[C@H](Cc1ccc(O)cc1)NC(=O)[C@H](Cc1ccccc1)NC(=O)[C@H](Cc1c[nH]c2ccccc12)NC(=O)[C@@H]1Cc2ccccc2CN1C(=O)[C@@H](N)Cc1ccc(O)cc1 [HTyrTicTrpPheTyrProSerNH2, H-Tyr-Tic-Trp-Phe-Tyr-Pro-Ser-NH2] (HELM PEPTIDE1{Y.[Tic].W.F.Y.P.S.[am]}$$$$V2.0) |  | 4.2 nM |  |  |  | 3.65 nM |  |  |
| C=CCN(CC=C)[C@@H](Cc1ccc(O)cc1)C(=O)NC(C)(C)C(=O)NC(C)(C)C(=O)N[C@@H](Cc1ccccc1)C(=O)N[C@@H](CC(C)C)C(=O)O [ICI 174864, N,N-diallyl-Tyr-Aib-Aib-Phe-Leu-OH, reference compound] (HELM PEPTIDE1{[C=CCN(CC=C)[C@@H](Cc1ccc(O)cc1)C(=O)[*:2]].[Aib].[Aib].F.L}$$$$V2.0) |  |  |  |  |  |  |  | 10-300 times |
| CN[C@@H](Cc1ccc(O)cc1)C(=O)N1Cc2ccccc2C[C@H]1CN[C@@H](CCc1ccccc1)C(=O)N[C@@H](Cc1ccccc1)C(=O)O [Tyr(NMe)-Tic.psi.[CH2NH]HfePheOH, Tyr(NMe)-Tic.PSI.[CH2 --NH]Hfe-Phe-OH] | 0.418 nM | 0.78 nM |  |  |  | 0.902 nM |  |  |
| O=C(O)[C@H](Cc1ccccc1)NC(=O)[C@H](Cc1ccccc1)NC(=O)[C@@H]1Cc2ccccc2CN1C(=O)[C@H](Cc1ccc(O)cc1)NCC1CC1 [Tyr(N^α Cpm)-TicPhePheOH, Tyr(N^α Cpm)-Tic-Phe-Phe-OH] | 32.5 nM | 29.6 nM |  |  |  | 28.2 nM |  |  |
| CCN(CC)[C@@H](Cc1ccc(O)cc1)C(=O)N1Cc2ccccc2C[C@H]1C(=O)N[C@@H](Cc1ccccc1)C(=O)N[C@@H](Cc1ccccc1)C(=O)O [Tyr(N^α Et2)-TicPhePheOH, Tyr(N^α Et2)-Tic-Phe-Phe-OH] | 2.3 nM | 3.39 nM |  |  |  | 0.893 nM |  |  |
